Experimental data as given in patent US8524745B2 (Allergan, Inc., priority 2011, dated 2013).

Biological target: T1, CCR2 (Homo sapiens, UniProt P41597)
T1 construct: expressed in transfected cells
Assay: CCR2 calcium activity assay on FLIPR Tetra in HEK-Gqi5 cells stably expressing CCR2
Type: cell-based
Procedure: HEK-Gqi5 cells stably expressing CCR2 were cultured in (DMEM high glucose, 10% FBS, 1% PSA, 400 μg/ml geneticin and 50 μg/ml hygromycin. Appropriate positive control chemokines (MCP-1, MIP1A or RANTES) was used as the positive control agonist for screening compound-induced calcium activity assayed on the FLIPR^Tetra. The drug plates were prepared in 384-well microplates using the EP3 and the MuItiPROBE robotic liquid handling systems. Compounds were synthesized and tested for CCR2 activity.

T1 sequence (P41597 whole entry, species assumed): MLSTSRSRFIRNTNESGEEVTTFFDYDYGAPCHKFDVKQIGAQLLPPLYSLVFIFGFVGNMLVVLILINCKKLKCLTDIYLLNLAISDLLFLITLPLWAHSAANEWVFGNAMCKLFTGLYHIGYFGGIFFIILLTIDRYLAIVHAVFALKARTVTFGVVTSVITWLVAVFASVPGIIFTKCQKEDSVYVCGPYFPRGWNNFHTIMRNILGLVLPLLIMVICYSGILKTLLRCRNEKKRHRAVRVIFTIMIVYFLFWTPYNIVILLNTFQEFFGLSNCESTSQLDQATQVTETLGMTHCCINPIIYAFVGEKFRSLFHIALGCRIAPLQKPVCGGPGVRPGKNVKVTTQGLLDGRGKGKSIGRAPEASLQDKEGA

| Compound | CCR2 % ANTAG | IC50 |
| --- | --- | --- |
| Cc1cc(NS(=O)(=O)c2ccc3c(c2)c(=O)sn3C)c(C)cc1Cl [N-(4-chloro-2,5-dimethylphenyl)-1-methyl-3-oxo-1,3-dihydro-2,1-benzisothiazole-5-sulfonamide] | 80% | 1.85 µM |
| COc1cc(Cl)c(C)cc1NS(=O)(=O)c1ccc2c(c1)c(=O)sn2C [N-(4-chloro-2-methoxy-5-methylphenyl)-1-methyl-3-oxo-1,3-dihydro-2,1-benzisothiazole-5-sulfonamide] | 0% | > 8.3 µM |
| COc1ccc(C(=O)Nc2ccc(Cl)cc2NS(=O)(=O)c2ccc3c(c2)c(=O)sn3C)cc1 [N-(4-chloro-2-{[(1-methyl-3-oxo-1,3-dihydro-2,1-benzisothiazol-5-yl)sulfonyl]amino}phenyl)-4-methoxybenzamide] | 56% |  |
| CC(=O)Nc1ccc(S(=O)(=O)Nc2ccc(Cl)cc2NS(=O)(=O)c2ccc3c(c2)c(=O)sn3C)cc1 [N-(4-{[(4-chloro-2-{[(1-methyl-3-oxo-1,3-dihydro-2,1-benzisothiazol-5-yl)sulfonyl]amino}phenyl)amino]sulfonyl}phenyl)acetamide] | 80% | 2.23 µM |
| COc1ccc(S(=O)(=O)Nc2ccc(Cl)cc2NS(=O)(=O)c2ccc3c(c2)c(=O)sn3C)c(OC)c1 [N-(5-chloro-2-{[(2,4-dimethoxyphenyl)sulfonyl]amino}phenyl)-1-methyl-3-oxo-1,3-dihydro-2,1-benzisothiazole-5-sulfonamide] | 95% | 1.68 µM |
| Cn1sc(=O)c2cc(S(=O)(=O)Nc3cc(Cl)ccc3NS(=O)(=O)c3ccc(Cl)c(Cl)c3)ccc21 [N-(5-chloro-2-{[(3,4-dichlorophenyl)sulfonyl]amino}phenyl)-1-methyl-3-oxo-1,3-dihydro-2,1-benzisothiazole-5-sulfonamide] | 97% | 1.29 µM |
| COc1ccc(S(=O)(=O)Nc2ccc(Cl)cc2NS(=O)(=O)c2ccc3c(c2)c(=O)sn3C)cc1OC [N-(5-chloro-2-{[(3,4-dimethoxyphenyl)sulfonyl]amino}phenyl)-1-methyl-3-oxo-1,3-dihydro-2,1-benzisothiazole-5-sulfonamide] | 93% | 1.02 µM |
| Cn1sc(=O)c2cc(S(=O)(=O)Nc3cc(Cl)ccc3NS(=O)(=O)c3cc(Cl)cc(Cl)c3)ccc21 [N-(5-chloro-2-{[(3,5-dichlorophenyl)sulfonyl]amino}phenyl)-1-methyl-3-oxo-1,3-dihydro-2,1-benzisothiazole-5-sulfonamide] | 94% | 2.6 µM |
| CCOc1ccc(S(=O)(=O)Nc2ccc(Cl)cc2NS(=O)(=O)c2ccc3c(c2)c(=O)sn3C)cc1 [N-(5-chloro-2-{[(4-ethoxyphenyl)sulfonyl]amino}phenyl)-1-methyl-3-oxo-1,3-dihydro-2,1-benzisothiazole-5-sulfonamide] | 84% | 2.79 µM |
| CC(C)Oc1ccc(S(=O)(=O)Nc2ccc(Cl)cc2NS(=O)(=O)c2ccc3c(c2)c(=O)sn3C)cc1 [N-(5-chloro-2-{[(4-isopropoxyphenyl)sulfonyl]amino}phenyl)-1-methyl-3-oxo-1,3-dihydro-2,1-benzisothiazole-5-sulfonamide] | 72% |  |
| CC(C)c1ccc(S(=O)(=O)Nc2ccc(Cl)cc2NS(=O)(=O)c2ccc3c(c2)c(=O)sn3C)cc1 [N-(5-chloro-2-{[(4-isopropylphenyl)sulfonyl]amino}phenyl)-1-methyl-3-oxo-1,3-dihydro-2,1-benzisothiazole-5-sulfonamide] | 94% | 0.985 µM |
| Cc1ccc(S(=O)(=O)Nc2ccc(Cl)cc2NS(=O)(=O)c2ccc3c(c2)c(=O)sn3C)cc1 [N-(5-chloro-2-{[(4-methylphenyl)sulfonyl]amino}phenyl)-1-methyl-3-oxo-1,3-dihydro-2,1-benzisothiazole-5-sulfonamide] | 95% | 0.68 µM |
| Cn1sc(=O)c2cc(S(=O)(=O)Nc3cc(Cl)cc4c3OCCO4)ccc21 [N-(7-chloro-2,3-dihydro-1,4-benzodioxin-5-yl)-1-methyl-3-oxo-1,3-dihydro-2,1-benzisothiazole-5-sulfonamide] | 63% | 1.67 µM |
| Cn1sc(=O)c2cc(S(=O)(=O)Nc3ccccc3NS(=O)(=O)c3cc(C(F)(F)F)cc(C(F)(F)F)c3)ccc21 [N-[2-({[3,5-bis(trifluoromethyl)phenyl]sulfonyl}amino)phenyl]-1-methyl-3-oxo-1,3-dihydro-2,1-benzisothiazole-5-sulfonamide] | 94% | 2.07 µM |
| CN(C)c1ccc(S(=O)(=O)Nc2ccc(Cl)cc2NS(=O)(=O)c2ccc3c(c2)c(=O)sn3C)cc1 [N-[5-chloro-2-({[4-(dimethylamino)phenyl]sulfonyl}amino)phenyl]-1-methyl-3-oxo-1,3-dihydro-2,1-benzisothiazole-5-sulfonamide] | 64% | 1.65 µM |
| Cn1sc(=O)c2cc(S(=O)(=O)Nc3cccc4c3Oc3ccccc3O4)ccc21 [N-dibenzo[b,e][1,4]dioxin-1-yl-1-methyl-3-oxo-1,3-dihydro-2,1-benzisothiazole-5-sulfonamide] | 67% | 1.46 µM |
| Cn1sc(=O)c2cc(S(=O)(=O)NC(C)(C)CNS(=O)(=O)c3cccs3)ccc21 [N-{1,1-dimethyl-2-[(2-thienylsulfonyl)amino]ethyl}-1-methyl-3-oxo-1,3-dihydro-2,1-benzisothiazole-5-sulfonamide] | 20% | 2.49 µM |
| Cn1sc(=O)c2cc(S(=O)(=O)N3CCCC(NS(=O)(=O)c4cccs4)C3)ccc21 (stereo not drawn) [N-{1-[(1-methyl-3-oxo-1,3-dihydro-2,1-benzisothiazol-5-yl)sulfonyl]piperidin-3-yl}thiophene-2-sulfonamide] | 54% |  |
| Cn1sc(=O)c2cc(S(=O)(=O)N3CCC(NS(=O)(=O)c4cccs4)C3)ccc21 (stereo not drawn) [N-{1-[(1-methyl-3-oxo-1,3-dihydro-2,1-benzisothiazol-5-yl)sulfonyl]pyrrolidin-3-yl}thiophene-2-sulfonamide] | 44% | 2.76 µM |
| Cn1sc(=O)c2cc(S(=O)(=O)Nc3ccccc3NS(=O)(=O)c3c[nH]cn3)ccc21 [N-{2-[(1H-imidazol-4-ylsulfonyl)amino]phenyl}-1-methyl-3-oxo-1,3-dihydro-2,1-benzisothiazole-5-sulfonamide] | 0% | > 8.3 µM |

Further lines, results first:

| CCR2 % ANTAG | IC50 | Compound |
| --- | --- | --- |
| 91% | 0.397 µM | COc1ccccc1S(=O)(=O)Nc1ccc(Cl)cc1NS(=O)(=O)c1ccc2c(c1)c(=O)sn2C [N-(5-chloro-2-{[(2-methoxyphenyl)sulfonyl]amino}phenyl)-1-methyl-3-oxo-1,3-dihydro-2,1-benzisothiazole-5-sulfonamide] |
| 91% | 0.493 µM | Cn1sc(=O)c2cc(S(=O)(=O)Nc3cc(Cl)ccc3NS(=O)(=O)c3cccc(Cl)c3)ccc21 [N-(5-chloro-2-{[(3-chlorophenyl)sulfonyl]amino}phenyl)-1-methyl-3-oxo-1,3-dihydro-2,1-benzisothiazole-5-sulfonamide] |
| 83% | 0.402 µM | COc1cccc(S(=O)(=O)Nc2ccc(Cl)cc2NS(=O)(=O)c2ccc3c(c2)c(=O)sn3C)c1 [N-(5-chloro-2-{[(3-methoxyphenyl)sulfonyl]amino}phenyl)-1-methyl-3-oxo-1,3-dihydro-2,1-benzisothiazole-5-sulfonamide] |
| 95% | 0.491 µM | Cn1sc(=O)c2cc(S(=O)(=O)Nc3cc(Cl)ccc3NS(=O)(=O)c3ccc(O)cc3)ccc21 [N-(5-chloro-2-{[(4-hydroxyphenyl)sulfonyl]amino}phenyl)-1-methyl-3-oxo-1,3-dihydro-2,1-benzisothiazole-5-sulfonamide] |
| 78% | 0.21 µM | COc1ccc(S(=O)(=O)Nc2ccc(Cl)cc2NS(=O)(=O)c2ccc3c(c2)c(=O)sn3C)cc1 [N-(5-chloro-2-{[(4-methoxyphenyl)sulfonyl]amino}phenyl)-1-methyl-3-oxo-1,3-dihydro-2,1-benzisothiazole-5-sulfonamide] |
| 95% | 0.497 µM | Cc1ccc(S(=O)(=O)Nc2ccc(Cl)cc2NS(=O)(=O)c2ccc3c(c2)c(=O)sn3C)s1 [N-(5-chloro-2-{[(5-methyl-2-thienyl)sulfonyl]amino}phenyl)-1-methyl-3-oxo-1,3-dihydro-2,1-benzisothiazole-5-sulfonamide] |
| 100% | 0.412 µM | Cn1sc(=O)c2cc(S(=O)(=O)Nc3ccccc3NS(=O)(=O)c3ccc(Cl)c(C(F)(F)F)c3)ccc21 [N-[2-({[4-chloro-3-(trifluoromethyl)phenyl]sulfonyl}amino)phenyl]-1-methyl-3-oxo-1,3-dihydro-2,1-benzisothiazole-5-sulfonamide] |
| 84% | 0.529 µM | Cn1sc(=O)c2cc(S(=O)(=O)Nc3cc(Cl)c(Cl)cc3NS(=O)(=O)c3ccc(Cl)c(C(F)(F)F)c3)ccc21 [N-[4,5-dichloro-2-({[4-chloro-3-(trifluoromethyl)phenyl]sulfonyl}amino)phenyl]-1-methyl-3-oxo-1,3-dihydro-2,1-benzisothiazole-5-sulfonamide] |
| 69% | 0.678 µM | CN(C)c1cccc(S(=O)(=O)Nc2ccc(Cl)cc2NS(=O)(=O)c2ccc3c(c2)c(=O)sn3C)c1 [N-[5-chloro-2-({[3-(dimethylamino)phenyl]sulfonyl}amino)phenyl]-1-methyl-3-oxo-1,3-dihydro-2,1-benzisothiazole-5-sulfonamide] |
| 88% | 0.24 µM | Cn1sc(=O)c2cc(S(=O)(=O)Nc3cc(Cl)ccc3NS(=O)(=O)c3ccc(Cl)c(C(F)(F)F)c3)ccc21 [N-[5-chloro-2-({[4-chloro-3-(trifluoromethyl)phenyl]sulfonyl}amino)phenyl]-1-methyl-3-oxo-1,3-dihydro-2,1-benzisothiazole-5-sulfonamide] |
